Source: PubChem BioAssay (NCI)
Values joined by “and” are separate entries in the source; they are usually repeats but may differ in a detail not shown here. Identical values can stand only once.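 In this assay, cells in 96-well plates receive the compound at five concentrations for 48 hours. Endpoints are linearly interpolated between the surrounding concentrations. At the GI50, growth is halved. TGI denotes the concentration required for complete inhibition of growth.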

Columns and labels:
Assay in all cases: NCI tumour cell line growth inhibition, 48 h
UACC-62 melanoma = tested on: UACC-62 melanoma
OVCAR-4 ovarian = tested on: OVCAR-4 ovarian
HL-60(TB) leukemia = tested on: HL-60(TB) leukemia
HT29 colon = tested on: HT29 colon
EKVX NSCLC = tested on: EKVX NSCLC
BT-549 breast = tested on: BT-549 breast
OVCAR-5 ovarian = tested on: OVCAR-5 ovarian
M14 melanoma = tested on: M14 melanoma
CAKI-1 renal = tested on: CAKI-1 renal
SK-MEL-5 melanoma = tested on: SK-MEL-5 melanoma

Row | Structure (SMILES) | GI50 (UACC-62 melanoma) [µM] | TGI (UACC-62 melanoma) | GI50 (OVCAR-4 ovarian) [µM] | TGI (OVCAR-4 ovarian) | GI50 (HL-60(TB) leukemia) [µM] | TGI (HL-60(TB) leukemia) | GI50 (HT29 colon) [µM] | TGI (HT29 colon) | GI50 (EKVX NSCLC) [µM] | TGI (EKVX NSCLC) [µM] | GI50 (BT-549 breast) [µM] | TGI (BT-549 breast) | GI50 (OVCAR-5 ovarian) [µM] | TGI (OVCAR-5 ovarian) | GI50 (M14 melanoma) [µM] | TGI (M14 melanoma) | GI50 (CAKI-1 renal) [µM] | TGI (CAKI-1 renal) | GI50 (SK-MEL-5 melanoma) [µM] | TGI (SK-MEL-5 melanoma)
1 | O=C(NCCCCCCNC(=O)OCc1ccc2c(Cl)cc(Cl)c(O)c2n1)OCc1ccc2c(Cl)cc(Cl)c(O)c2n1 | 1.06 | 2.28 µM | 0.707 | 2.04 µM | 0.771 | 4.29 µM | 0.565 | 2.23 µM | 1.51 | 3.08 | 0.748 | 2.17 µM | 1.5 | 3.01 µM | 0.893 | 2.32 µM | 0.412 | 1.69 µM | 1.54 | 2.88 µM
2 | Nc1nc(-c2cccs2)cs1 |  | > 100 µM |  | > 100 µM |  | > 100 µM |  | > 100 µM |  | > 100 |  | > 100 µM |  | > 100 µM |  | > 100 µM |  | > 100 µM |  | > 100 µM
3 | C=C(C)[C@@H]1CC[C@]2(C(N)=O)CC[C@]3(C)[C@H](CC[C@@H]4[C@@]5(C)C/C(=C/c6cccnc6)[C@H](O)C(C)(C)[C@@H]5CC[C@]43C)[C@@H]12 | 5.38 | > 100 µM | 3.31 | > 100 µM | 2.69 | 11.2 µM | 3.68 | > 100 µM | 4.03 | > 100 | 6.36 | > 100 µM | 3.61 | > 100 µM | 4.86 | > 100 µM | 2.15 | 28.4 µM | 3.23 | 12.4 µM
4 | Cn1c(=N)n[n+]([O-])c2ccccc21 |  | 2.37 µM and 3.61 µM |  | 7.55 µM and 5.23 µM |  | 10.1 µM and 10.4 µM |  | 4.88 µM and 15.1 µM |  | 18.3 |  | 3.27 µM and 3.46 µM |  | 3.83 µM and 7.61 µM |  | 3.7 µM and 3.76 µM |  | 5.86 µM and 6.18 µM |  | 3.32 µM and 2.96 µM
5 | CCN1CCN(c2ccc(Nc3ncc4ccc5ncn(C(C)C)c5c4n3)nc2)CC1 | 0.199 | 0.723 µM | 0.273 | 0.885 µM | < 0.0238 | 0.586 µM | 0.0489 | 15.5 µM | 0.131 | 0.563 | 0.218 | 0.687 µM | 0.037 | 21.5 µM | 0.124 | 1.34 µM | 0.025 | 0.52 µM | 0.153 | 0.405 µM
6 | CC1=CC(=O)c2ccc(C)cc2C1=O |  | 21.9 µM |  | 52.5 µM |  | 5.4 µM |  | > 100 µM |  | 23.9 |  | 25 µM |  | 35.4 µM |  | 30.8 µM |  | 14.9 µM |  | 15 µM
7 | Cc1nn(C)c2cc(N(C)c3ccnc(Nc4cccc(S(N)(=O)=O)c4)n3)ccc12 | 5.94 | > 22.7 µM | 6.15 | > 25 µM | 5.76 | 21.5 µM | 6.1 | > 25 µM | 6.92 | > 25 | 8.69 | > 23.5 µM | 5.83 | > 25 µM | 8.11 | > 25 µM | 7.17 | > 22.6 µM | 3.62 | 8.4 µM
8 | C[C@@H]1OCC2(CCN(c3cnc(Sc4ccnc(N)c4Cl)c(N)n3)CC2)[C@@H]1N | > 100 | > 100 µM | 26.9 | > 100 µM | > 100 | > 100 µM | > 100 | > 100 µM | 0.573 | > 100 | 34.6 | > 100 µM | > 100 | > 100 µM | > 100 | > 100 µM | 3.69 | > 100 µM | > 93.3 | > 100 µM
9 | C=C1C(=O)O[C@H]2[C@H]1CC/C(COC(=O)NCc1cc(OC)cc(OC)c1)=C\CC[C@@]1(C)O[C@@H]21 | 0.663 | 2.56 µM | 1.7 | 5.24 µM | 1.69 | 5.03 µM | 1.2 | 2.96 µM | 2.06 | 6.6 | 1.57 | 3.07 µM | 1.82 | 4.45 µM | 1.64 | 3.87 µM | 1.59 | 3.1 µM | 3.48 | 12.2 µM
10 | COc1cc2c3c(n(CCCN4CCCC(O)C4)c(=O)c2cc1OC)-c1cc2c(cc1C3=O)OCO2 (stereo not given) | 5.01 | 12.8 µM | 1.07 | 2.68 µM | 0.597 | 1.32 µM | 0.731 | 9.94 µM | 1.26 | 2.54 | 0.898 | 3.21 µM | 0.931 | 1.71 µM | 0.0297 | 0.972 µM | 0.00685 | 1.36 µM | 0.318 | 20.6 µM
